Experiments:
Assay type in all cases: in vivo
[1] = test system: japonica rice (ORYSP, Oryza sativa); test: Test G paddy, alone and in combination: japonica rice; settings: evaluated after 14 days
Protocol: (§1) Seeds of smallflower umbrella sedge (CYPDI, Cyperus difformis) and ducksalad (HETLI, Heteranthera limosa) were sown on the soil surface in two separate quadrants of 11 cm tubs filled with steam pasteurized Tama soil. Simultaneously, plantings of barnyardgrass (ECHCG, Echinochloa crus-galli) and japonica rice (ORYSP, Oryza sativa) were established in separate “plug” flats. Plants were grown in a greenhouse using supplemental lighting to maintain a photoperiod of approximately 16 h; daytime and nighttime temperatures were approximately 27-30° C. and 19-22° C., respectively. After 8 days, barnyardgrass plants were transplanted to one of the remaining quadrants of the tub, and the water level was adjusted to a final depth of 3 cm. Herbicide application timing was targeted at the 2.0 to 2.5 leaf stage and the plants were treated with test chemicals formulated in a non-phytotoxic solvent. Treated plants and controls were maintained in a greenhouse for 14 days, after which time all species were compared to controls and visually evaluated. Plant response ratings are summarized in Tables G1 through G3, and are based on a scale of 0 to 100 where 0 is no effect and 100 is complete control. A dash (-) response means no test result.

[2] = test system: barnyardgrass (ECHCG, Echinochloa crus-galli); test: Test G paddy, alone and in combination: barnyardgrass; settings: evaluated after 14 days
Protocol: as §1

[3] = test system: smallflower umbrella sedge (CYPDI, Cyperus difformis); test: Test G paddy, alone and in combination: smallflower umbrella sedge; settings: evaluated after 14 days
Protocol: as §1

[4] = test system: ducksalad (HETLI, Heteranthera limosa); test: Test G paddy, alone and in combination: ducksalad; settings: evaluated after 14 days
Protocol: as §1

[5] = test system: wheat (TRZAW, Triticum aestivum); test: Test H post-emergence, alone and in combination: wheat
Excerpt: (§2) Seeds of plant species selected from wheat (TRZAW, Triticum aestivum), barley (HORBW, Hordeum vulgare), Kochia (KCHSC, Kochia caoparia) blackgrass (ALOMY, Alopecurus myosuroides), canarygrass (PHAMI, Phalaris minor), Italian ryegrass (LOLMU, Lolium multiflorum) common lambsquarter (CHEAL, Chenopodium album), pigweed (AMARE, Amaranthus retroflexus), Common Chickweed (STEME, Stellaria media), Russian thistle (SASKR, Salsola iberica), Wild Buckwheat (POLCO, Polygonum convolvulus), Catchweed Bedstraw (GALAP, Galium aparine), Mustard (SINAR, Sinapisar arvensis), Henbit Deadnettle (LAMAM, Lamium amplexicaule), Wild Radish (RAPRA, Raphanus raphanistrum), Field Poppy (PAPRH, Papaver rhoeas), Field Violet (VIOAR, Viola arvennsis), Scentless Chamomile (MATIN Matricaria inodora) were planted into soil and treated post-emergence with test chemicals formulated in a non-phytotoxic solvent mixture. Plants were grown in a greenhouse using supplemental lighting to maintain a photoperiod of approximately 14 hours; daytime and nighttime temperatures were approximately 23°-29° and 16°-19° Celsius, respectively. Balanced fertilizer was applied through the watering system. Treated plants and controls were maintained in a greenhouse for 20 days, after which time all species were compared to controls and visually evaluated. Plant response ratings were calculated as the mean of three replicates (unless otherwise indicated), are summarized in Table G, and are based on a scale of 0 to 100 where 0 is no effect and 100 is complete control. A dash (-) response means no test result.

[6] = test system: barley (HORBW, Hordeum vulgare); test: Test H post-emergence, alone and in combination: barley
Excerpt: as §2

[7] = test system: Kochia (KCHSC, Kochia caoparia); test: Test H post-emergence, alone and in combination: Kochia
Excerpt: as §2

[8] = test system: blackgrass (ALOMY, Alopecurus myosuroides); test: Test H post-emergence, alone and in combination: blackgrass
Outline: (§3)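 Seedlings grown in soil were sprayed post-emergence with test chemicals in a non-phytotoxic solvent mixture, then kept in a greenhouse (~14 h photoperiod, ~23°-29° day/16°-19° night Celsius) for 20 days. Injury was rated visually against untreated controls on a 0–100 scale (100 = complete control), averaged over three replicates.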

[9] = test system: canarygrass (PHAMI, Phalaris minor); test: Test H post-emergence, alone and in combination: canarygrass
Outline: as §3

[10] = test system: Italian ryegrass (LOLMU, Lolium multiflorum); test: Test H post-emergence, alone and in combination: Italian ryegrass
Excerpt: as §2

[11] = test system: common lambsquarter (CHEAL, Chenopodium album); test: Test H post-emergence, alone and in combination: common lambsquarter
Excerpt: as §2

[12] = test system: pigweed (AMARE, Amaranthus retroflexus); test: Test H post-emergence, alone and in combination: pigweed
Outline: as §3

[13] = test system: Common Chickweed (STEME, Stellaria media); test: Test H post-emergence, alone and in combination: Common Chickweed
Excerpt: as §2

[14] = test system: Russian thistle (SASKR, Salsola iberica); test: Test H post-emergence, alone and in combination: Russian thistle
Outline: as §3

[15] = test system: Wild Buckwheat (POLCO, Polygonum convolvulus); test: Test H post-emergence, alone and in combination: Wild Buckwheat
Excerpt: as §2

[16] = test system: Catchweed Bedstraw (GALAP, Galium aparine); test: Test H post-emergence, alone and in combination: Catchweed Bedstraw
Outline: as §3

[17] = test system: Mustard (SINAR, Sinapisar arvensis); test: Test H post-emergence, alone and in combination: Mustard
Outline: as §3

[18] = test system: Henbit Deadnettle (LAMAM, Lamium amplexicaule); test: Test H post-emergence, alone and in combination: Henbit Deadnettle
Outline: as §3

[19] = test system: Wild Radish (RAPRA, Raphanus raphanistrum); test: Test H post-emergence, alone and in combination: Wild Radish
Outline: as §3

[20] = test system: Field Poppy (PAPRH, Papaver rhoeas); test: Test H post-emergence, alone and in combination: Field Poppy
Outline: as §3

[21] = test system: Field Violet (VIOAR, Viola arvennsis); test: Test H post-emergence, alone and in combination: Field Violet
Outline: as §3

[22] = test system: Scentless Chamomile (MATIN Matricaria inodora); test: Test H post-emergence, alone and in combination: Scentless Chamomile
Excerpt: as §2

## COC(=O)c1ccccc1CS(=O)(=O)NC(=O)Nc1nc(OC)cc(OC)n1 [b2a, bensulfuron-methyl]
[1]; Rate 16 g/ha
  ORYSP plant response rating (scale of 0 to 100): 0
[1]; Rate 31 g/ha
  ORYSP plant response rating (scale of 0 to 100): 0
[1]; Rate 32 g/ha
  ORYSP plant response rating (scale of 0 to 100): 0
[1]; Rate 62 g/ha
  ORYSP plant response rating (scale of 0 to 100): 0
[1]; Rate 64 g/ha
  ORYSP plant response rating (scale of 0 to 100): 0
[1]; Rate 125 g/ha
  ORYSP plant response rating (scale of 0 to 100): 0
[2]; Rate 16 g/ha
  ECHCG plant response rating (scale of 0 to 100): 60
[2]; Rate 31 g/ha
  ECHCG plant response rating (scale of 0 to 100): 68
[2]; Rate 32 g/ha
  ECHCG plant response rating (scale of 0 to 100): 60
[2]; Rate 62 g/ha
  ECHCG plant response rating (scale of 0 to 100): 75
[2]; Rate 64 g/ha
  ECHCG plant response rating (scale of 0 to 100): 68
[2]; Rate 125 g/ha
  ECHCG plant response rating (scale of 0 to 100): 75
[3]; Rate 16 g/ha
  CYPDI plant response rating (scale of 0 to 100): 90
[3]; Rate 31 g/ha
  CYPDI plant response rating (scale of 0 to 100): 90
[3]; Rate 32 g/ha
  CYPDI plant response rating (scale of 0 to 100): 90
[3]; Rate 62 g/ha
  CYPDI plant response rating (scale of 0 to 100): 93
[3]; Rate 64 g/ha
  CYPDI plant response rating (scale of 0 to 100): 90
[3]; Rate 125 g/ha
  CYPDI plant response rating (scale of 0 to 100): 93
[4]; Rate 16 g/ha
  HETLI plant response rating (scale of 0 to 100): 90
[4]; Rate 31 g/ha
  HETLI plant response rating (scale of 0 to 100): 95
[4]; Rate 32 g/ha
  HETLI plant response rating (scale of 0 to 100): 90
[4]; Rate 62 g/ha
  HETLI plant response rating (scale of 0 to 100): 98
[4]; Rate 64 g/ha
  HETLI plant response rating (scale of 0 to 100): 95
[4]; Rate 125 g/ha
  HETLI plant response rating (scale of 0 to 100): 98

## COC(=O)c1sccc1S(=O)(=O)NC(=O)Nc1nc(C)nc(OC)n1 [b2c, thifensulfuron-methyl]
[5]; Rate 8
  TRZAW plant response: 0
[5]; Rate 16
  TRZAW plant response: 0
[5]; Rate 31
  TRZAW plant response: 0
[5]; Rate 62
  TRZAW plant response: 5
[6]; Rate 8
  HORBW plant response: 0
[6]; Rate 16
  HORBW plant response: 5
[6]; Rate 31
  HORBW plant response: 5
[6]; Rate 62
  HORBW plant response: 5
[7]; Rate 8
  KCHSC plant response: 70
[7]; Rate 16
  KCHSC plant response: 85
[7]; Rate 31
  KCHSC plant response: 95
[7]; Rate 62
  KCHSC plant response: 100
[8]; Rate 8
  ALOMY plant response: 10
[8]; Rate 16
  ALOMY plant response: 45
[8]; Rate 31
  ALOMY plant response: 60
[8]; Rate 62
  ALOMY plant response: 65
[9]; Rate 8
  PHAMI plant response: 10
[9]; Rate 16
  PHAMI plant response: 60
[9]; Rate 31
  PHAMI plant response: 70
[9]; Rate 62
  PHAMI plant response: 90
[10]; Rate 8
  LOLMU plant response: 20
[10]; Rate 16
  LOLMU plant response: 50
[10]; Rate 31
  LOLMU plant response: 70
[10]; Rate 62
  LOLMU plant response: 90
[11]; Rate 8
  CHEAL plant response: 85
[11]; Rate 16
  CHEAL plant response: 70
[11]; Rate 31
  CHEAL plant response: 100
[11]; Rate 62
  CHEAL plant response: 95
[12]; Rate 8
  AMARI plant response: 100
[12]; Rate 16
  AMARI plant response: 100
[12]; Rate 31
  AMARI plant response: 100
[12]; Rate 62
  AMARI plant response: 100
[13]; Rate 8
  STEME plant response: 85
[13]; Rate 16
  STEME plant response: 100
[13]; Rate 31
  STEME plant response: 100
[13]; Rate 62
  STEME plant response: 100
[14]; Rate 8
  SASKR plant response: 100
[14]; Rate 16
  SASKR plant response: 100
[14]; Rate 31
  SASKR plant response: 100
[14]; Rate 62
  SASKR plant response: 100
[15]; Rate 8
  POLCO plant response: 95
[15]; Rate 16
  POLCO plant response: 95
[15]; Rate 31
  POLCO plant response: 95
[15]; Rate 62
  POLCO plant response: 95
[16]; Rate 8
  GALAP plant response: 80
[16]; Rate 16
  GALAP plant response: 90
[16]; Rate 31
  GALAP plant response: 75
[16]; Rate 62
  GALAP plant response: 95
[17]; Rate 8
  SINAR plant response: 80
[17]; Rate 16
  SINAR plant response: 90
[17]; Rate 31
  SINAR plant response: 85
[17]; Rate 62
  SINAR plant response: 95
[18]; Rate 8
  LAMAM plant response: 60
[18]; Rate 16
  LAMAM plant response: 70
[18]; Rate 31
  LAMAM plant response: 75
[18]; Rate 62
  LAMAM plant response: 75
[19]; Rate 8
  RAPRA plant response: 95
[19]; Rate 16
  RAPRA plant response: 75
[19]; Rate 31
  RAPRA plant response: 100
[19]; Rate 62
  RAPRA plant response: 95
[20]; Rate 8
  PAPRH plant response: 70
[20]; Rate 16
  PAPRH plant response: 75
[20]; Rate 31
  PAPRH plant response: 100
[20]; Rate 62
  PAPRH plant response: 100
[21]; Rate 8
  VIOAR plant response: 80
[21]; Rate 16
  VIOAR plant response: 85
[21]; Rate 31
  VIOAR plant response: 75
[21]; Rate 62
  VIOAR plant response: 95
[22]; Rate 8
  MATIN plant response: 95
[22]; Rate 16
  MATIN plant response: 90
[22]; Rate 31
  MATIN plant response: 100
[22]; Rate 62
  MATIN plant response: 100

## COCCCn1c(-c2cccc(OC)c2)ncc(C(=O)C2=C(O)CCCC2=O)c1=O [b12a, 5-[(2-hydroxy-6-oxo-1-cyclohexen-1-yl)carbonyl]-2-(3-methoxyphenyl)-3-(3-methoxypropyl)-4(3H)-pyrimidinone]
[1]; Rate 125 g/ha
  ORYSP plant response rating (scale of 0 to 100): 5
[2]; Rate 125 g/ha
  ECHCG plant response rating (scale of 0 to 100): 35
[3]; Rate 125 g/ha
  CYPDI plant response rating (scale of 0 to 100): 80
[4]; Rate 125 g/ha
  HETLI plant response rating (scale of 0 to 100): 80
